In the NIST ThermoML archive (doi:10.1016/j.tca.2009.05.015):
± gives the expanded uncertainty stated by the source.

Details: 293 K; 101.33 kPa; Crystal; X-ray diffraction

mass density: 1022 ± 2 kg/m3
SMILES: CCCCCCCCCCCCN.Cl [dodecanamine hydrochloride]
